Structures can show the parent of a compound that is named as a salt. Where two headings read alike, the source gives them in different places.
Columns and labels:
[1] = molecular target: Recombinant human PKC-delta (His-tagged 345-676) (Homo sapiens (Human), UniProt Q05655); assay: PKC-delta inhibition assay (HTRF KinEASE kit), PKC-theta/PKC-delta selectivity; format: biochemical; details: ratio; for PKC-theta/PKC-delta selectivity: PKC-theta over PKC-delta, HTRF assays; for PKC-theta/PKC-delta selectivity (binned): binned A to G
Procedure, shortened: (§1)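 HTRF KinEASE kinase assay, buffer supplemented with 10 mM MgCl2, 1 mM DTT, 0.1% Tween 20; enzyme at 10 ng/ml preincubated 30 min on ice with compound. PKC-theta: 525 nM STK substrate, 6.5 μM ATP, 30 min at 25° C; PKC-delta: 243 nM substrate, 5.7 μM ATP, 20 min. IC50 from 4-parameter fit of 10-dose series.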

[2] = molecular target: Recombinant human PKC-theta (His-tagged 362-706) (Homo sapiens (Human), UniProt Q04759); assay: PKC-theta inhibition assay (HTRF KinEASE kit); format: biochemical; details: ATP 6.5 μM; for IC50: binned A to H, read-out: PKC-theta HTRF pIC50 (binned) (converted)
Procedure, shortened: as §1

[3] = tested on: IL-2 secretion by human effector memory T cells (TEM); assay: Effector memory T cells IL-2 release assay; format: cell-based; details: T-cell, 24 h
Procedure, shortened: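 Human CD4+ effector memory T cells (negatively sorted from donor PBMC), 5,000 per well, stimulated with CD3/CD28 beads and 10 semi-log compound doses for 24 h at 37° C, 0.1% DMSO. Supernatant IL-2 measured by HTRF; IC50 from 4-parameter logistic fit; viability checked by flow cytometry.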

[4] = human CD4+ TEM cells, CD3/CD28 bead stimulation, binned A to G, read-out: PKC-theta IL2 pIC50 (binned) (converted)
[5] = human CD4+ TEM cells, CD3/CD28 bead stimulation, read-out: PKC-theta IL2 pIC50 (converted)

Chain of Recombinant human PKC-theta (His-tagged 362-706) (Q04759 362-706): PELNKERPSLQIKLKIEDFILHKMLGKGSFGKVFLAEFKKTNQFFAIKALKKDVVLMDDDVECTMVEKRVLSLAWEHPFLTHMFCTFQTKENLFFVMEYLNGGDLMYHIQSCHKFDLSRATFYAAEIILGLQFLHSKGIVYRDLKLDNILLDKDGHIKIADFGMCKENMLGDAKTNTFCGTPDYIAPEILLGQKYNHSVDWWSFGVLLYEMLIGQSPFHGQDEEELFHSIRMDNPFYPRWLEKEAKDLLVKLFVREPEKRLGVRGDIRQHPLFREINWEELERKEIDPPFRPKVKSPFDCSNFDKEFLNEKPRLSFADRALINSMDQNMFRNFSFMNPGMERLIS
Chain of Recombinant human PKC-delta (His-tagged 345-676) (Q05655 345-676): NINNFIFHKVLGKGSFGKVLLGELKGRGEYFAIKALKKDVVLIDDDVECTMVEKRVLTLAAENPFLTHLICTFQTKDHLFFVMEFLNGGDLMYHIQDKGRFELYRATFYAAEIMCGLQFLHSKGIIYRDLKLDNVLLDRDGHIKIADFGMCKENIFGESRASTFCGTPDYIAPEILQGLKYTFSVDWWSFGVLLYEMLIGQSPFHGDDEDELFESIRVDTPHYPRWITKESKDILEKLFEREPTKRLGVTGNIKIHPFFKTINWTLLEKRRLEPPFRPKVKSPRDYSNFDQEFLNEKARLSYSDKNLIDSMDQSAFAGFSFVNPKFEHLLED

Row | Structure (SMILES) | PKC-theta/PKC-delta selectivity [1] | PKC-theta/PKC-delta selectivity (binned) [1] | PKC-theta HTRF pIC50 [2] | IC50 [2] [nM] | IC50 [3, 4] [nM] | IC50 [3, 5] [nM] | IC50 ([3]; Homo sapiens, read-out: PKC-theta IL2 pIC50 (binned) (converted)) [nM] | IC50 ([3]; Homo sapiens, read-out: PKC-theta IL2 pIC50 (converted)) [nM]
1 | CC1(C)C(=O)Nc2nccc(-c3nn([C@@H]4CCNC[C@@H]4F)c4ccccc34)c21 [Example 37] | 19 | D (D means a ratio of between 10 and 20) | 8.6 | 1 to 3.16 | 10 to 31.6 | 25.1 | – | –
2 | CC1(C)C(=O)Nc2nccc(-c3nn(CC4(F)CCNCC4)c4ccccc34)c21 [Example 38] | 16 | D (D means a ratio of between 10 and 20) | 8.9 | 1 to 3.16 | 10 to 31.6 | 20 | – | –
3 | CC1(O)C(=O)Nc2nccc(-c3nn([C@@H]4CC[C@@H](N)[C@H](F)C4)c4ccccc34)c21 (stereo partly drawn) [Example 39] | 10 | E (E means a ratio of between 5 and 10) | 9.7 | ≤ 1 | 3.16 to 10 | 10 | – | –
4 | CC1(C)C(=O)Nc2nccc(-c3nn([C@H]4CC[C@H](N)CC4)c4ccccc34)c21 [Example 41] | 14 | D (D means a ratio of between 10 and 20) | 9.4 | ≤ 1 | 10 to 31.6 | 15.8 | – | –
5 | CC1(C)C(=O)Nc2nccc(-c3nn(CC4(F)CCCNC4)c4ccccc34)c21 (stereo not drawn) [Example 44] | 14 | D (D means a ratio of between 10 and 20) | 7.5 | 31.6 to 100 | 100 to 316 | 251 | – | –
6 | CC1(C)C(=O)Nc2nccc(-c3nn(C4(CC#N)COC4)c4ccccc34)c21 [Example 45] | 15 | D (D means a ratio of between 10 and 20) | 7.4 | 31.6 to 100 | > 1000 | 1000 | – | –
7 | CC1(C)C(=O)Nc2nccc(-c3nn(C4(CC#N)CNC4)c4ccccc34)c21 [Example 46] | 3 | F (F means a ratio of between 1 and 5) | 8.2 | 3.16 to 10 | 100 to 316 | 158 | – | –
8 | CCC1(O)C(=O)Nc2nccc(-c3nn(C4(CC#N)CCC4)c4ccccc34)c21 (stereo not drawn) [Example 51] | 11 | D (D means a ratio of between 10 and 20) | 9.3 | ≤ 1 | 10 to 31.6 | 15.8 | – | –
9 | CCC1(C)C(=O)Nc2nccc(-c3nn([C@@H]4CCNC[C@@H]4F)c4ccccc34)c21 (stereo partly drawn) [Example 52] | 8 | E (E means a ratio of between 5 and 10) | 8.4 | 3.16 to 10 | 31.6 to 100 | 39.8 | – | –
10 | CCC1(C)C(=O)Nc2nccc(-c3nn([C@H]4CCNC4)c4ccccc34)c21 (stereo partly drawn) [Example 53] | 13 | D (D means a ratio of between 10 and 20) | 8.3 | 3.16 to 10 | 31.6 to 100 | 100 | – | –
11 | CC1(Cn2nc(-c3ccnc4c3C(C)(C)C(=O)N4)c3ccccc32)COCCN1 (stereo not drawn) [Example 54, 3,3-dimethyl-4-[1-[(3-methylmorpholin-3-yl)methyl]indazol-3-yl]-1H-pyrrolo[2,3-b]pyridin-2-one] | 22 | C (C means a ratio of between 20 and 30) | 8.6 | 1 to 3.16 | 31.6 to 100 | 79.4 | – | –
12 | O=C1Nc2nccc(-c3nn(C4(CO)CCNC4)c4cc(F)ccc34)c2C12CCCC2 (stereo not drawn) [Example 55, 4-[6-fluoro-1-[3-(hydroxymethyl)pyrrolidin-3-yl]indazol-3-yl]spiro[1H-pyrrolo[2,3-b]pyridine-3,1′-cyclopentane]-2-one dihydrochloride] | 4 | F (F means a ratio of between 1 and 5) | 8.2 | 3.16 to 10 | – | – | 100 to 316 | 158
13 | CCC1(O)C(=O)Nc2nccc(-c3nn([C@@H]4CCNC[C@@H]4F)c4ccccc34)c21 (stereo partly drawn) [Example 56] | 15 | D (D means a ratio of between 10 and 20) | 8.7 | 1 to 3.16 | 31.6 to 100 | 50.1 | – | –
14 | COC1(C)C(=O)Nc2nccc(-c3nn(C4(CC#N)CCC4)c4ccccc34)c21 (stereo not drawn) [Example 57] | 14 | D (D means a ratio of between 10 and 20) | 8.9 | 1 to 3.16 | 31.6 to 100 | 50.1 | – | –
15 | COC1(C)C(=O)Nc2nccc(-c3nn([C@@H]4CCNC[C@@H]4F)c4ccccc34)c21 (stereo partly drawn) [Example 61] | 16 | D (D means a ratio of between 10 and 20) | 8.7 | 1 to 3.16 | 31.6 to 100 | 50.1 | – | –
16 | CNC1(C)C(=O)Nc2nccc(-c3nn(C4(CC#N)CCC4)c4ccccc34)c21 (stereo not drawn) [Example 62] | 3 | F (F means a ratio of between 1 and 5) | 9.5 | ≤ 1 | 1 to 3.16 | 1.58 | – | –
17 | CN1CCOCC1(C)Cn1nc(-c2ccnc3c2C(C)(C)C(=O)N3)c2ccccc21 (stereo not drawn) [Example 63] | 17 | D (D means a ratio of between 10 and 20) | 7.5 | 10 to 31.6 | > 1000 | 1260 | – | –
18 | COC1(C)C(=O)Nc2nccc(-c3nn(CC4(F)CCCNC4)c4ccccc34)c21 (stereo not drawn) [Example 67] | 9 | E (E means a ratio of between 5 and 10) | 7.5 | 31.6 to 100 | 316 to 1000 | 398 | – | –
19 | CC1(C)C(=O)Nc2nccc(-c3nn([C@H]4CCNC4)c4cc(F)ccc34)c21 [Example 70] | 20 | C (C means a ratio of between 20 and 30) | 8.1 | 3.16 to 10 | 100 to 316 | 126 | – | –
20 | CC1(C)C(=O)Nc2nccc(-c3nn([C@H]4CCNC4)c4cc(Cl)ccc34)c21 [Example 71] | 22 | C (C means a ratio of between 20 and 30) | 8.1 | 3.16 to 10 | 100 to 316 | 126 | – | –
21 | CC1(C)C(=O)Nc2nccc(-c3nn([C@H]4CCNC4)c4c(F)cccc34)c21 [Example 72] | 20 | D (D means a ratio of between 10 and 20) | 7.9 | 10 to 31.6 | 100 to 316 | 200 | – | –
22 | CC1(C)C(=O)Nc2nccc(-c3nn([C@H]4CCNC4)c4ccc(F)cc34)c21 [Example 73] | 10 | D (D means a ratio of between 10 and 20) | 7.5 | 10 to 31.6 | 316 to 1000 | 631 | – | –
23 | CC1(C)C(=O)Nc2nccc(-c3nn([C@H]4CCNC4)c4cc(C(F)(F)F)ccc34)c21 [Example 74] | 33 | B (B means a ratio of between 30 and 50) | 6.5 | 100 to 316 | 316 to 1000 | 631 | – | –
24 | CC1(C)C(=O)Nc2nccc(-c3nn(C4(CF)CCNC4)c4ccccc34)c21 (stereo not drawn) [Example 77] | 11 | D (D means a ratio of between 10 and 20) | 9.0 | ≤ 1 | 10 to 31.6 | 12.6 | – | –
25 | CC1(C)C(=O)Nc2nccc(-c3nn(C[C@H]4COCCN4)c4ccccc34)c21 [Example 86] | 26 | C (C means a ratio of between 20 and 30) | 7.5 | 10 to 31.6 | > 1000 | 1260 | – | –
26 | CC1(C)C(=O)Nc2nccc(-c3nn(C[C@@]4(C)COCCN4)c4cc(F)ccc34)c21 [Example 87] | 38 | B (B means a ratio of between 30 and 50) | 9.0 | ≤ 1 | 31.6 to 100 | 50.1 | – | –
27 | CC1(C)C(=O)Nc2nccc(-c3nn(CC4(F)CCNC4)c4ccccc34)c21 (stereo not drawn) [Example 96] | 17 | D (D means a ratio of between 10 and 20) | 8.7 | 1 to 3.16 | 10 to 31.6 | 25.1 | – | –
